pEC50: −log10 of the molar value.
Each compound was assayed on HT-29 cells (assay: HT-29 cell necrosis/necroptosis inhibition (TNF-α + SMAC mimetic + zVAD-FMK; CellTiter-Glo cell viability)). Conditions: Homo sapiens, HT-29, 20 h, read-out: EC50 (Cell activity; Necrosis/Necroptosis Inhibitory Activity, Compounds 1-142).
Assay type: cell-based
In short: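 Necroptosis was driven by TNF-α 10 ng/ml plus SMAC mimetic 6 μM and zVAD-FMK 10 μM in serum-free medium, with compounds as a 10-point threefold titration. After 20 h at 37 °C, ATP-based luminescence was read; EC50 values are geometric means of duplicate curves.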
Work on Cc1nnnn1-c1ccnc(N2CCN(C(=O)N3N=CC[C@H]3c3cncc(C#N)c3)CC2)n1 [Compound 99, (S)-5-(1-(4-(4-(5-methyl-1H-tetrazol-1-yl)pyrimidin-2-yl)piperazine-1-carbonyl)-4,5-dihydro-1H-pyrazol-5-yl)nicotinonitrile] yielded a pEC50 of 7.00 to 10.00. For Cc1nn(CC#N)c(C)c1-c1nc(N2CCN(C(=O)N3N=CC[C@H]3c3cc(F)cc(C#N)c3)CC2)ncc1F [Compound 136, (S)-3-(1-(4-(4-(1-(cyanomethyl)-3,5-dimethyl-1H-pyrazol-4-yl)-5-fluoropyrimidin-2-yl)piperazine-1-carbonyl)-4,5-dihydro-1H-pyrazol-5-yl)-5-fluorobenzonitrile], the pEC50 was 7.00 to 10.00. In the case of CCOC(=O)c1n[nH]c(C)c1-c1nc(N2CCN(C(=O)N3N=CC[C@H]3c3cc(F)cc(C#N)c3)CC2)ncc1F [Compound 73, ethyl (S)-4-(2-(4-(5-(3-cyano-5-fluorophenyl)-4,5-dihydro-1H-pyrazole-1-carbonyl)piperazin-1-yl)-5-fluoropyrimidin-4-yl)-5-methyl-1H-pyrazole-3-carboxylat], the pEC50 was 7.00 to 10.00.

Same assay, conditions: Homo sapiens; HT-29 cells, TNF-α 10 ng/ml + SMAC mimetic 6 μM + zVAD-FMK 10 μM, 20 hours; geometric mean, 10 points in duplicate; read-out: EC50 (Cell activity; Necrosis/Necroptosis Inhibitory Activity, Compounds 1-142)
For N#Cc1cccc([C@@H]2CC=NN2C(=O)N2CCN(c3nccc(-c4cc[nH]n4)n3)CC2)c1 [Compound 37, (S)-3-(1-(4-(4-(1H-pyrazol-3-yl)pyrimidin-2-yl)piperazine-1-carbonyl)-4,5-dihydro-1H-pyrazol-5-yl)benzonitrile], the pEC50 was 7.00 to 10.00. In the case of COC(=O)c1cc(C)n(-c2nc(N3CCN(C(=O)N4N=CC[C@H]4c4cc(F)cc(F)c4)CC3)ncc2F)c1 [Compound 91, methyl (5)-1-(2-(4-(5-(3,5-difluorophenyl)-4,5-dihydro-1H-pyrazole-1-carbonyl)piperazin-1-yl)-5-fluoropyrimidin-4-yl)-5-methyl-1H-pyrrole-3-carboxylate], the pEC50 was 7.00 to 10.00. With O=C(N1CCN(c2nccc(-c3cc[nH]n3)n2)CC1)N1N=CC[C@H]1c1ccccc1 [Compound 39, (S)-(4-(4-(1H-pyrazol-3-yl)pyrimidin-2-yl)piperazin-1-yl)(5-phenyl-4,5-dihydro-1H-pyrazol-1-yl)methanone] the pEC50 was 7.00 to 10.00. N#Cc1cc(F)cc([C@@H]2CC=NN2C(=O)N2CCN(c3nccc(-n4cc(C(N)=O)cn4)n3)CC2)c1 [Compound 102, (S)-1-(2-(4-(5-(3-cyano-5-fluorophenyl)-4,5-dihydro-1H-pyrazole-1-carbonyl)piperazin-1-yl)pyrimidin-4-yl)-1H-pyrazole-4-carboxamide] was tested, and the pEC50 was 7.00 to 10.00. In the case of O=C(N1CCN(c2nccc(-n3nnnc3C(F)(F)F)n2)CC1)N1N=CC[C@H]1c1cccc(F)c1 [Compound 103, (S)-(5-(3-fluorophenyl)-4,5-dihydro-1H-pyrazol-1-yl)(4-(4-(5-(trifluoromethyl)-1H-tetrazol-1-yl)pyrimidin-2-yl)piperazin-1-yl)methanone], the pEC50 was 7.00 to 10.00. Compound Cn1ncnc1-c1nc(N2CCN(C(=O)N3N=CC[C@H]3c3cc(F)cc(F)c3)CC2)ncc1F [Compound 65, (S)-(5-(3,5-difluorophenyl)-4,5-dihydro-1H-pyrazol-1-yl)(4-(5-fluoro-4-(1-methyl-1H-1,2,4-triazol-5-yl)pyrimidin-2-yl)piperazin-1-yl)methanone] has a pEC50 of 7.00 to 10.00. Cn1cc(-c2nc(N3CCN(C(=O)N4N=CC[C@H]4c4cc(F)cc(C#N)c4)CC3)ncc2F)nn1 [Compound 40] was tested, and the pEC50 was 7.00 to 10.00. Cc1cc(-c2nc(N3CCN(C(=O)N4N=CC[C@H]4c4cc(F)cc(F)c4)CC3)ncc2F)n(C)n1 [Compound 83, (S)-(5-(3,5-difluorophenyl)-4,5-dihydro-1H-pyrazol-1-yl)(4-(4-(1,3-dimethyl-1H-pyrazol-5-yl)-5-fluoropyrimidin-2-yl)piperazin-1-yl)methanone] was tested, and the pEC50 was 7.00 to 10.00. Cc1nn(-c2nc(N3CCN(C(=O)N4N=CC[C@H]4c4cc(F)cc(C#N)c4)CC3)ncc2F)c(C)c1N [Compound 131, (S)-3-(1-(4-(4-(4-amino-3,5-dimethyl-1H-pyrazol-1-yl)-5-fluoropyrimidin-2-yl)piperazine-1-carbonyl)-4,5-dihydro-1H-pyrazol-5-yl)-5-fluorobenzonitrile] gave a pEC50 of 7.00 to 10.00.

Same assay, conditions: Homo sapiens; HT-29 cells, TNF-α 10 ng/ml + SMAC mimetic 6 μM + zVAD-FMK 10 μM, 20 hours; geometric mean, 10 points in duplicate; read-out: EC50 (Cell activity; Necrosis/Necroptosis Inhibitory Activity, Compounds 143-323)
Compound Cc1csc(C2CC=NN2C(=O)N2CCN(c3ncc(F)c(-n4nc(C)nc4C)n3)CC2)n1 (stereo not shown) [Compound 215] has a pEC50 of 7.00 to 10.00. In the case of Cn1nc(C#N)nc1-c1nc(N2CCN(C(=O)N3N=CCC3c3cc(F)cc(F)c3)CC2)ncc1F (stereo not shown) [Compound 228, 5-(2-(4-(5-(3,5-difluorophenyl)-4,5-dihydro-1H-pyrazole-1-carbonyl)piperazin-1-yl)-5-fluoropyrimidin-4-yl)-1-methyl-1H-1,2,4-triazole-3-carbonitrile], the pEC50 was 7.00 to 10.00. For O=C(N1CCN(c2ncc(F)c(-n3nccc3C(F)(F)F)n2)CC1)N1N=CC[C@H]1c1cncc(F)c1 [Compound 308, (S)-(4-(5-fluoro-4-(5-(trifluoromethyl)-1H-pyrazol-1-yl)pyrimidin-2-yl)piperazin-1-yl)(5-(5-fluoropyridin-3-yl)-4,5-dihydro-1H-pyrazol-1-yl)methanone], the pEC50 was 7.00 to 10.00. Cc1csc(C2CC=NN2C(=O)N2CCN(c3cc(-c4c(C)cnn4C)ncc3F)CC2)n1 (stereo not shown) [Compound 157, (4-(2-(1,4-dimethyl-1H-pyrazol-5-yl)-5-fluoropyridin-4-yl)piperazin-1-yl)(5-(4-methylthiazol-2-yl)-4,5-dihydro-1H-pyrazol-1-yl)methanone] gave a pEC50 of 6.00 to 7.00. Compound Cc1cc(C(F)(F)F)nn1-c1nc(N2CCN(C(=O)N3N=CC[C@H]3c3cc(F)cc(F)c3)CC2)ncc1F [Compound 196, (S)-(5-(3,5-difluorophenyl)-4,5-dihydro-1H-pyrazol-1-yl)(4-(5-fluoro-4-(5-methyl-3-(trifluoromethyl)-1H-pyrazol-1-yl)pyrimidin-2-yl)piperazin-1-yl)methanone] has a pEC50 of 7.00 to 10.00. With Cc1nc(C)n(-c2cc(N3CCN(C(=O)N4N=CC[C@H]4c4cc(F)cc(C#N)c4)CC3)c(F)cn2)n1 [Compound 272, (S)-3-(1-(4-(2-(3,5-dimethyl-1H-1,2,4-triazol-1-yl)-5-fluoropyridin-4-yl)piperazine-1-carbonyl)-4,5-dihydro-1H-pyrazol-5-yl)-5-fluorobenzonitrile] the pEC50 was 7.00 to 10.00. In the case of Cc1nc(C)n(-c2nc(N3CCN(C(=O)N4N=CCC4c4cnc(C)s4)CC3)ncc2Cl)n1 (stereo not shown) [Compound 223, (4-(5-chloro-4-(3,5-dimethyl-1H-1,2,4-triazol-1-yl)pyrimidin-2-yl)piperazin-1-yl)(5-(2-methylthiazol-5-yl)-4,5-dihydro-1H-pyrazol-1-yl)methanone], the pEC50 was 7.00 to 10.00. Compound Cc1c(N)nn(C)c1-c1nc(N2CCN(C(=O)N3N=CC[C@H]3c3cc(F)cc(C#N)c3)CC2)ncc1F [Compound 153, (S)-3-(1-(4-(4-(3-amino-1,4-dimethyl-1H-pyrazol-5-yl)-5-fluoropyrimidin-2-yl)piperazine-1-carbonyl)-4,5-dihydro-1H-pyrazol-5-yl)-5-fluorobenzonitrile] has a pEC50 of 7.00 to 10.00. In the case of Cc1cnn(C)c1-c1ccc(F)c(N2CCN(C(=O)N3N=CCC3c3ncccc3Cl)CC2)n1 (stereo not shown) [Compound 300, (5-(3-chloropyridin-2-yl)-4,5-dihydro-1H-pyrazol-1-yl)(4-(6-(1,4-dimethyl-1H-pyrazol-5-yl)-3-fluoropyridin-2-yl)piperazin-1-yl)methanone], the pEC50 was 7.00 to 10.00. Work on Cc1nc(C)n(-c2nc(N3CCN(C(=O)N4N=CCC4c4ncccc4Cl)CC3)ncc2Cl)n1 (stereo not shown) [Compound 220, (4-(5-chloro-4-(3,5-dimethyl-1H-1,2,4-triazol-1-yl)pyrimidin-2-yl)piperazin-1-yl)(5-(3-chloropyridin-2-yl)-4,5-dihydro-1H-pyrazol-1-yl)methanone] yielded a pEC50 of 7.00 to 10.00. Cc1ncc(C2CC=NN2C(=O)N2CCN(c3nc(-c4c(C)cnn4C)ccc3F)CC2)s1 (stereo not shown) [Compound 270, (4-(6-(1,4-dimethyl-1H-pyrazol-5-yl)-3-fluoropyridin-2-yl)piperazin-1-yl)(5-(2-methylthiazol-5-yl)-4,5-dihydro-1H-pyrazol-1-yl)methanone] gave a pEC50 of 7.00 to 10.00. Cc1cnn(C)c1-c1cc(N2CCN(C(=O)N3N=CC[C@H]3c3cc(F)cc(F)c3)CC2)c(F)cn1 [Compound 149, (S)-(5-(3,5-difluorophenyl)-4,5-dihydro-1H-pyrazol-1-yl)(4-(2-(1,4-dimethyl-1H-pyrazol-5-yl)-5-fluoropyridin-4-yl)piperazin-1-yl)methanone] showed a pEC50 of 7.00 to 10.00. Cc1nc(C)n(-c2nc(N3CCN(C(=O)N4N=CCC4c4ncc(C)s4)CC3)ncc2F)n1 (stereo not shown) [Compound 216, (4-(4-(3,5-dimethyl-1H-1,2,4-triazol-1-yl)-5-fluoropyrimidin-2-yl)piperazin-1-yl)(5-(5-methylthiazol-2-yl)-4,5-dihydro-1H-pyrazol-1-yl)methanone] was tested, and the pEC50 was 7.00 to 10.00. With Cn1nc(CO)nc1-c1nc(N2CCN(C(=O)N3N=CCC3c3cc(F)cc(F)c3)CC2)ncc1F (stereo not shown) [Compound 227, (5-(3,5-difluorophenyl)-4,5-dihydro-1H-pyrazol-1-yl)(4-(5-fluoro-4-(3-(hydroxymethyl)-1-methyl-1H-1,2,4-triazol-5-yl)pyrimidin-2-yl)piperazin-1-yl)methanone] the pEC50 was 7.00 to 10.00. Compound O=C(N1CCN(c2ncc(F)c(-n3nccc3C(F)(F)F)n2)CC1)N1N=CC[C@H]1c1ccccc1 [Compound 307, (S)-(4-(5-fluoro-4-(5-(trifluoromethyl)-1H-pyrazol-1-yl)pyrimidin-2-yl)piperazin-1-yl)(5-phenyl-4,5-dihydro-1H-pyrazol-1-yl)methanone] has a pEC50 of 7.00 to 10.00. With CCS(=O)(=O)Nc1c(C)nn(-c2nc(N3CCN(C(=O)N4N=CC[C@H]4c4cc(F)cc(C#N)c4)CC3)ncc2F)c1C [Compound 194, (S)—N-(1-(2-(4-(5-(3-cyano-5-fluorophenyl)-4,5-dihydro-1H-pyrazole-1-carbonyl)piperazin-1-yl)-5-fluoropyrimidin-4-yl)-3,5-dimethyl-1H-pyrazol-4-yl)ethanesulfonamide] the pEC50 was 7.00 to 10.00.
